Data on six compounds can be found in patent US20150216955A1, “IMMUNOMODULATORY AGENT AND USES THEREFOR” (The University of Queensland, priority 2012, published 2015).

The subject of one series is PBMC. The series can be described thus: Cytokine secretion in day 5 supernatants by Cytometric Bead Array (CBA) after peptide stimulation. Format: cell-based, human. Conditions: for number of RA patients with positive IL-6 response to this epitope only: of 17 RA patients, threshold mean + 2 SD above native peptide response; for cytokine responses to the epitope: current studies, fibrinogen: long-standing RA patients.

Series [1] has as its system antigen-presenting cells (APC). Description: Pre-incubation of APC with NF-kB, mTOR or Syk inhibitors; T cell cytokine production in response to citrullinated aggrecan peptide. It is filed as cell-based, human. Conditions: APC pre-incubated 1 h with inhibitor, then LPS; 5 days with CD4+ T cells and 3 or 30 μg/mL Aggrecan peptide 84-103 cit 93. As for the experimental part: Peripheral blood mononuclear cells (PBMC) were extracted from an RA patient with disease duration 18 years, positive anti-CCP and HLA-DRB1*0401 shared epitope. Autologous CD4+ T cells were isolated using immunomagnetic beads. The non-T cell fraction consists of antigen-presenting cells (APC), including dendritic cells, monocytes and B cells; it was treated with Mitomycin C to prevent proliferation. The APC were pre-incubated for 1 h without or with 3 uM BAY7011-82, 20 μg/mL Curcumin (both inhibit NF-kB), 10 ng/mL Rapamycin (inhibits mTOR) or […] Piceatannol (inhibits syk), then incubated with 100 ng/mL LPS for 1 h. The APC were washed 3 times then incubated for 5 days with CD4+ T cells in the presence of 0 μg/mL, 3 μg/mL or 30 μg/mL Aggrecan peptide 84-103 cit 93. Cytokines were analysed in culture supernatants by cytokine bead array.

For the next series, the system named is CD4+ T cells. Description: Flow cytometry and intracellular cytokine staining after peptide stimulation. It is filed as cell-based, human. The procedure:
FIG. 6 is a graphical representation showing cytokine secretion by CD4^+ T cell subsets. PBMC from HLA-DR SE^+ RA patients and healthy controls were incubated with 0 or 30 μg/ml citrullinated fibrinogen or citrullinated aggrecan, stained with mAb directed against CD4, CD28, IFN-γ and IL-6 (A), or CD4, CD45RO, IL-6 and IFN-γ (E) then analyzed by flow cytometry. B: The gating strategy is outlined. C: Fluorescence minus one (FMO) plot showing background staining for intracellular cytokine staining, gated on CD4^+ T cells. D: IL-6 staining of gated CD4^− non-T cells. The proportions in (E) of IL-6^+CD4^+CD45RO^+ T cells were 2.2%, 5.3% and 7.1%, and of IL-6^+CD4^+CD45RO^− T cells were 0.8%, 2.1% and 4% in response to incubation with no peptide, citrullinated fibrinogen and citrullinated aggrecan respectively. Two individual RA patients and 1 healthy control are shown. Data are representative of 2 healthy donors and 5 RA patients.
IL-6 is an important cytokine in RA, which could be produced upon stimulation of PBMC either by T cells or antigen presenting cells. To determine the origin of the cytokines secreted into supernatants of PBMC stimulated by citrullinated peptides, RA PBMC were incubated with citrullinated or native peptides for 5 days, with addition of Brefeldin-A for the last 18 hours, prior to intracellular cytokine staining along with analysis of cell surface markers. CD3^+CD4^+ T cells produced more intra-cellular IFN-γ and IL-6 when incubated with citrullinated aggrecan or fibrinogen relative to incubation in medium alone (FIG. 6A, B). […] In healthy controls, CD28^− cells comprised only a small proportion of the CD4^+ T cells, and cytokine-secreting cells were exclusively CD4^+CD28^+. CD28^− cells were more abundant among CD4^+ PB T cells in some, but not all, RA patients. Where CD4^+CD28^− T cells were present, IL-6 and IFN-γ were secreted by both CD28^− and CD28^+CD4^+ T cells in response to citrullinated peptides. […] IFN-γ^+CD4^+ and IL-6^+CD4^+ T cells included both CD45RO^+ and CD45RO^− cells (FIG. 6E).
PBMC from SE^+ RA patients or healthy controls were incubated with or without peptides at concentrations of 3 and 30 μg/mL for 5 days, with Brefeldin A (Sigma Aldrich) added for the final 18 hours. Cells were stained for CD3-FITC, CD4-APC/Cy7, CD28-FITC, CXCR5-PerCP/Cy5.5 and CD45RO-PerCP/Cy5.5 (Biolegend), followed by permeabilization and staining for intracellular IL-6-APC and IFN-γ-APC (Biolegend). Data were collected on the Gallios flow cytometer and analysed using Kaluza software (Beckman Coulter).
Background: In flow cytometry, cells or beads pass a laser one at a time.

Series [2] in a line: Solubility of peptide in aqueous medium. Format: physicochemical.
Another series relates to PBMC or SFMC. It is filed as cell-based, human.
Setting [3] is: RA PBMC, 5 days, Brefeldin-A last 18 hours.

Where a SMILES comes first, the peptide text is derived from it. Where no end group is shown, it is not given here. [ ]: non-standard residue; d: D form. Cit = NC(=O)NCCC[C@H](N)C(=O)O

On to “QYM[Cit]ADQAAGGLR [citrullinated collagen type II]”, for which, in the series on PBMC, the “number of RA patients with positive IL-6 response to this epitope only” value is 0.
`Cc1ccc(S(=O)(=O)/C=C/C#N)cc1` [Bay11-7082, E3((4-methylphenyl)-sulfonyl)-2-propenenitrile]: the “capacity of APC presenting cit-peptide to induce T cell IL-6 production” value in series [1] is reported as “partially suppressed”.
Take “SAVRA[Cit]SSVPGVR [citrullinated vimentin 66-78]”: in the series on PBMC, the “cytokine responses to the epitope” value is listed as “much weaker cytokine responses”.
In the case of “QDFIN[Cit]INKLKNS [citrullinated fibrinogen]”, the “healthy controls whose PBMC dose-dependently secreted IL-6” value in the series with PBMC (6 SE+ healthy controls) is 3/6. In the series on PBMC, the “cytokine responses to the epitope” value is listed as “robust cytokine production” and the “number of RA patients with positive IL-6 response to this epitope only” value was found to be 0. Further, the “proportion of IL-6+CD4+CD45RO- T cells” value with CD4+ T cells (30 μg/ml peptide, no peptide 0.8%) was determined as 2.1%. In the series on CD4+ T cells (30 μg/ml peptide, no peptide 2.2%), the “proportion of IL-6+CD4+CD45RO+ T cells” value is 5.3%. Further, in the series on CD4+ T cells (setting [3]), the “intra-cellular IFN-γ in CD3+CD4+ T cells relative to medium alone” value is listed as “more” and the “intra-cellular IL-6 in CD3+CD4+ T cells relative to medium alone” value is on record as “more”.
`CC(C)C[C@H](NC(=O)[C@H](CC(C)C)NC(=O)[C@@H](NC(=O)[C@@H](N)C(C)C)C(C)C)C(=O)N[C@H](C(=O)N[C@@H](C)C(=O)N[C@H](C(=O)N[C@@H](CCC(=O)O)C(=O)NCC(=O)N[C@@H](CCCNC(N)=O)C(=O)N[C@H](C(=O)N[C@@H](CCCNC(=N)N)C(=O)N[C@H](C(=O)N[C@@H](CC(N)=O)C(=O)N[C@@H](CO)C(=O)N[C@@H](C)C(=O)N[C@@H](Cc1ccc(O)cc1)C(=O)N[C@@H](CCC(N)=O)C(=O)N[C@@H](CC(=O)O)C(=O)N[C@@H](CCCCN)C(=O)O)C(C)C)C(C)C)[C@@H](C)O)C(C)C` [citrullinated aggrecan, VVLLVATEGCitVRVNSAYQDK] (HELM PEPTIDE1{V.V.L.L.V.A.T.E.G.[Cit].V.R.V.N.S.A.Y.Q.D.K}$$$$V2.0; N-terminus and C-terminus assumed): the “solubility in aqueous medium” value in series [2] is “relatively insoluble in aqueous medium”.
In the case of tetanus toxoid, in the series on PBMC or SFMC, the “Proliferative responses to tetanus toxoid, RA compared with healthy control PBMC” value was “significantly lower”.
